Measured values as given in patent US8076338B2, “Kinase modulators and methods of use” (Exelixis, Inc., priority 2004, dated 2011).

Tests used:
[1] = target: p70S6K (Homo sapiens, UniProt P23443); experiment: Luciferase-coupled chemiluminescence kinase assay (ATP consumption); format: biochemical; conditions: Table 1; class symbols per key
In short: (§1)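 Enzyme at 2.5-5 nM was preincubated 30 min at room temperature with compound in Tris pH 7.5, MgCl2, TX-100, DTT, then reacted with ATP for 3 h at ambient temperature. Remaining ATP was quantified by luciferase-luciferin chemiluminescence, with consumption kept at 25-60%; […].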

[2] = target: AktK (Homo sapiens, UniProt P31749); experiment: as above; format: biochemical; conditions: Table 1; class symbols per key; read-out: AKT-1 IC50
Chain of AktK (P31749 whole entry): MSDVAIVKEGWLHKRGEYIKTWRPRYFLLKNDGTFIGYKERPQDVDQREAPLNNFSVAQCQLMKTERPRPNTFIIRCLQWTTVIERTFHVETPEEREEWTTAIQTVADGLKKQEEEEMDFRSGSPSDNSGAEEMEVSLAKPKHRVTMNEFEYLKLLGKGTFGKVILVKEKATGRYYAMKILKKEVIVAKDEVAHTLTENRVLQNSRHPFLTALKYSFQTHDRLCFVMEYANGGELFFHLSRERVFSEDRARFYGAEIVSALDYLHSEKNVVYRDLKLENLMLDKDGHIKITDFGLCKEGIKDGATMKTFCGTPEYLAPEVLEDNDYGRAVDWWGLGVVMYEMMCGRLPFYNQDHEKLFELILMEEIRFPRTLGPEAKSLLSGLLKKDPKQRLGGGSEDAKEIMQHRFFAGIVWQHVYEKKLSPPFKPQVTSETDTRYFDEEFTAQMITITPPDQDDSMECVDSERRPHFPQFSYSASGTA
In short: as §1

Chain of p70S6K (P23443 whole entry): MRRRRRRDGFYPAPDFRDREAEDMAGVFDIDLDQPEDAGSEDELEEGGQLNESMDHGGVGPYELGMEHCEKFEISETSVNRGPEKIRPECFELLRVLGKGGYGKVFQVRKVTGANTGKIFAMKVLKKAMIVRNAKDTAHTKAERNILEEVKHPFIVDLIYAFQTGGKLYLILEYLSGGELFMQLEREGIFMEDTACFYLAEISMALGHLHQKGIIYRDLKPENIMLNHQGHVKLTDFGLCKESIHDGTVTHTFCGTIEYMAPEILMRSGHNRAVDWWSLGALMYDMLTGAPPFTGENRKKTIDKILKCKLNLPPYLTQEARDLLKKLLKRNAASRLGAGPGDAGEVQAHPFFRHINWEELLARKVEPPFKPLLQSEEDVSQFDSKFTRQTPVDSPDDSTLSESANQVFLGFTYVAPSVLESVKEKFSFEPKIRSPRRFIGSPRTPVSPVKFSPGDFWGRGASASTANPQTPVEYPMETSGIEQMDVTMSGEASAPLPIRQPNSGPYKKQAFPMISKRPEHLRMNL

SMILES: Cc1c(CCCN2CCN(C)CC2)cc(Cl)cc1N1CCN(c2ncnc3[nH]nc(C(F)(F)F)c23)CC1 [Entry 92, 4-(4-{5-chloro-2-methyl-3-[3-(4-methylpiperazin-1-yl)propyl]phenyl}piperazin-1-yl)-3-(trifluoro-methyl)-1H-pyrazolo[3,4-d]pyrimidine]
- IC50 [1]: < 100 nM
- IC50 [2]: 100 to 1000 nM

SMILES: Fc1ccc(N2CCN(c3ncnc4[nH]nc(Br)c34)CC2)cc1Cl [Entry 93, 3-bromo-4-[4-(3-chloro-4-fluorophenyl)piperazin-1-yl]-1H-pyrazolo[3,4-d]pyrimidine]
- IC50 [1]: < 100 nM
- IC50 [2]: 1000 to 10000 nM

SMILES: CC(=O)c1ccc(N2CCN(c3ncnc4[nH]nc(Br)c34)CC2)cc1 [Entry 94, 1-{4-[4-(3-bromo-1H-pyrazolo[3,4-d]pyrimidin-4-yl)piperazin-1-yl]phenyl}ethanone]
- IC50 [1]: 100 to 1000 nM
- IC50 [2]: 1000 to 10000 nM

SMILES: Clc1ccc(Cl)c(N2CCN(c3ncnc4[nH]nc(Br)c34)CC2)c1 [Entry 95, 3-bromo-4-[4-(2,5-dichlorophenyl)piperazin-1-yl]-1H-pyrazolo[3,4-d]pyrimidine]
- IC50 [1]: < 100 nM
- IC50 [2]: ≥ 10000 nM

SMILES: Cc1ccc(N2CCN(c3ncnc4[nH]nc(Br)c34)CC2)cc1C [Entry 96, 3-bromo-4-[4-(3,4-dimethylphenyl)piperazin-1-yl]-1H-pyrazolo[3,4-d]pyrimidine]
- IC50 [1]: 100 to 1000 nM
- IC50 [2]: ≥ 10000 nM

SMILES: O=[N+]([O-])c1ccc(N2CCN(c3ncnc4[nH]nc(Br)c34)CC2)cc1 [Entry 97, 3-bromo-4-[4-(4-nitrophenyl)piperazin-1-yl]-1H-pyrazolo[3,4-d]pyrimidine]
- IC50 [1]: 100 to 1000 nM
- IC50 [2]: ≥ 10000 nM

SMILES: CCc1n[nH]c2ncnc(N3CCN(c4ccccc4)CC3)c12 [Entry 98, 3-ethyl-4-(4-phenylpiperazin-1-yl)-1H-pyrazolo[3,4-d]pyrimidine]
- IC50 [1]: 100 to 1000 nM
- IC50 [2]: ≥ 10000 nM

SMILES: CCc1n[nH]c2ncnc(N3CCN(c4cccc(OC)c4)CC3)c12 [Entry 99, 3-ethyl-4-{4-[3-(methyloxy)phenyl]piperazin-1-yl}-1H-pyrazolo[3,4-d]pyrimidine]
- IC50 [1]: 100 to 1000 nM
- IC50 [2]: ≥ 10000 nM

SMILES: Cc1c(CCCN2CCCCC2)cc(Cl)cc1N1CCN(c2ncnc3[nH]nc(C(F)(F)F)c23)CC1 [Entry 100, 4-{4-[5-chloro-2-methyl-3-(3-piperidin-1-ylpropyl)phenyl]piperazin-1-yl}-3-(trifluoromethyl)-1H-pyrazolo[3,4-d]pyrimidine]
- IC50 [1]: < 100 nM
- IC50 [2]: 100 to 1000 nM

SMILES: CCc1n[nH]c2ncnc(N3CCN(c4nc(C)cnc4C)CC3)c12 [Entry 101, 4-[4-(3,6-dimethylpyrazin-2-yl)piperazin-1-yl]-3-ethyl-1H-pyrazolo[3,4-d]pyrimidine]
- IC50 [1]: 100 to 1000 nM
- IC50 [2]: ≥ 10000 nM

SMILES: CCc1n[nH]c2ncnc(N3CCN(c4nccc5ccccc45)CC3)c12 [Entry 102, 1-[4-(3-ethyl-1H-pyrazolo[3,4-d]pyrimidin-4-yl)piperazin-1-yl]isoquinoline]
- IC50 [1]: < 100 nM
- IC50 [2]: ≥ 10000 nM

SMILES: Cc1cccc(C)c1N1CCN(c2ncnc3[nH]nc(Br)c23)CC1 [Entry 103, 3-bromo-4-[4-(2,6-dimethylphenyl)piperazin-1-yl]-1H-pyrazolo[3,4-d]pyrimidine]
- IC50 [1]: 100 to 1000 nM
- IC50 [2]: ≥ 10000 nM

SMILES: CCOc1ccc(N2CCN(c3ncnc4[nH]nc(Br)c34)CC2)cc1 [Entry 104, 3-bromo-4-{4-[4-(ethyloxy)phenyl]piperazin-1-yl}-1H-pyrazolo[3,4-d]pyrimidine]
- IC50 [1]: 100 to 1000 nM
- IC50 [2]: ≥ 10000 nM

SMILES: CCc1ccccc1N1CCN(c2ncnc3[nH]nc(Br)c23)CC1 [Entry 105, 3-bromo-4-[4-(2-ethylphenyl)piperazin-1-yl]-1H-pyrazolo[3,4-d]pyrimidine]
- IC50 [1]: 100 to 1000 nM
- IC50 [2]: ≥ 10000 nM

SMILES: COc1ccc(N2CCN(c3ncnc4[nH]nc(Br)c34)CC2)c(OC)c1 [Entry 106, 4-{4-[2,4-bis(methyloxy)phenyl]piperazin-1-yl}-3-bromo-1H-pyrazolo[3,4-d]pyrimidine]
- IC50 [1]: 100 to 1000 nM
- IC50 [2]: ≥ 10000 nM

SMILES: Brc1n[nH]c2ncnc(N3CCN(c4cnccn4)CC3)c12 [Entry 107, 3-bromo-4-(4-pyrazin-2-ylpiperazin-1-yl)-1H-pyrazolo[3,4-d]pyrimidine]
- IC50 [1]: 100 to 1000 nM
- IC50 [2]: ≥ 10000 nM

SMILES: Brc1n[nH]c2ncnc(N3CCN(c4ncccn4)CC3)c12 [Entry 108, 3-bromo-4-(4-pyrimidin-2-ylpiperazin-1-yl)-1H-pyrazolo[3,4-d]pyrimidine]
- IC50 [1]: 100 to 1000 nM
- IC50 [2]: ≥ 10000 nM

SMILES: FC(F)(F)c1cc(N2CCN(c3ncnc4[nH]nc(Br)c34)CC2)c2ccccc2n1 [Entry 109, 4-[4-(3-bromo-1H-pyrazolo[3,4-d]pyrimidin-4-yl)piperazin-1-yl]-2-(trifluoromethyl)quinoline]
- IC50 [1]: < 100 nM
- IC50 [2]: ≥ 10000 nM

SMILES: N#Cc1nccnc1N1CCN(c2ncnc3[nH]nc(Br)c23)CC1 [Entry 110, 3-[4-(3-bromo-1H-pyrazolo[3,4-d]pyrimidin-4-yl)piperazin-1-yl]pyrazine-2-carbonitrile]
- IC50 [1]: 100 to 1000 nM
- IC50 [2]: ≥ 10000 nM

SMILES: CCc1n[nH]c2ncnc(N3CCN(c4nc(C)cc(C)n4)CC3)c12 [Entry 111, 4-[4-(4,6-dimethylpyrimidin-2-yl)piperazin-1-yl]-3-ethyl-1H-pyrazolo[3,4-d]pyrimidine]
- IC50 [1]: 1000 to 10000 nM
- IC50 [2]: ≥ 10000 nM

SMILES: CCOC(=O)c1cnc(C(F)(F)F)nc1N1CCN(c2ncnc3[nH]nc(CC)c23)CC1 [Entry 112, ethyl 4-[4-(3-ethyl-1H-pyrazolo[3,4-d]pyrimidin-4-yl)piperazin-1-yl]-2-(trifluoromethyl)pyrimidine-5-carboxylate]
- IC50 [1]: 1000 to 10000 nM
- IC50 [2]: ≥ 10000 nM

SMILES: CCc1n[nH]c2ncnc(N3CCN(c4cc(Cl)cc(OC)c4)CC3)c12 [Entry 113, 4-{4-[3-chloro-5-(methyloxy)phenyl]piperazin-1-yl}-3-ethyl-1H-pyrazolo[3,4-d]pyrimidine]
- IC50 [1]: < 100 nM
- IC50 [2]: ≥ 10000 nM

SMILES: CCc1n[nH]c2ncnc(N3CCN(c4cc(F)cc(Br)c4Cl)CC3)c12 [Entry 114, 4-[4-(3-bromo-2-chloro-5-fluorophenyl)piperazin-1-yl]-3-ethyl-1H-pyrazolo[3,4-d]pyrimidine]
- IC50 [1]: 100 to 1000 nM
- IC50 [2]: ≥ 10000 nM

SMILES: CCc1n[nH]c2ncnc(N3CCN(c4ncccc4C(N)=O)CC3)c12 [Entry 115, 2-[4-(3-ethyl-1H-pyrazolo[3,4-d]pyrimidin-4-yl)piperazin-1-yl]pyridine-3-carboxamide]
- IC50 [1]: 100 to 1000 nM
- IC50 [2]: ≥ 10000 nM

SMILES: CCc1n[nH]c2ncnc(N3CCN(c4cc(C(F)(F)F)ccn4)CC3)c12 [Entry 116, 3-ethyl-4-{4-[4-(trifluoromethyl)pyridin-2-yl]piperazin-1-yl}-1H-pyrazolo[3,4-d]pyrimidine]
- IC50 [1]: 100 to 1000 nM
- IC50 [2]: ≥ 10000 nM

SMILES: FC(F)(F)c1ccnc(N2CCN(c3ncnc4[nH]nc(Br)c34)CC2)c1 [Entry 117, 3-bromo-4-{4-[4-(trifluoromethyl)pyridin-2-yl]piperazin-1-yl}-1H-pyrazolo[3,4-d]pyrimidine]
- IC50 [1]: 100 to 1000 nM
- IC50 [2]: ≥ 10000 nM

SMILES: FC(F)(F)c1ccnc(N2CCN(c3ncnc4[nH]nc(Br)c34)CC2)n1 [Entry 118, 3-bromo-4-{4-[4-(trifluoromethyl)pyrimidin-2-yl]piperazin-1-yl}-1H-pyrazolo[3,4-d]pyrimidine]
- IC50 [1]: 100 to 1000 nM
- IC50 [2]: ≥ 10000 nM

SMILES: CN(C)CCOc1nccnc1N1CCN(c2ncnc3[nH]nc(Br)c23)CC1 [Entry 119, 2-({3-[4-(3-bromo-1H-pyrazolo[3,4-d]pyrimidin-4-yl)piperazin-1-yl]pyrazin-2-yl}oxy)-N,N-dimethylethanamine]
- IC50 [1]: 100 to 1000 nM
- IC50 [2]: 1000 to 10000 nM

SMILES: Cc1cc(N2CCN(c3ncnc4[nH]nc(Br)c34)CC2)c2ccccc2n1 [Entry 120, 4-[4-(3-bromo-1H-pyrazolo[3,4-d]pyrimidin-4-yl)piperazin-1-yl]-2-methylquinoline]
- IC50 [1]: < 100 nM
- IC50 [2]: ≥ 10000 nM

SMILES: O=[N+]([O-])c1ccccc1N1CCN(c2ncnc3[nH]nc(Br)c23)CC1 [Entry 121, 3-bromo-4-[4-(2-nitrophenyl)piperazin-1-yl]-1H-pyrazolo[3,4-d]pyrimidine]
- IC50 [1]: 100 to 1000 nM
- IC50 [2]: ≥ 10000 nM

SMILES: N#Cc1ccccc1N1CCN(c2ncnc3[nH]nc(Br)c23)CC1 [Entry 122, 2-[4-(3-bromo-1H-pyrazolo[3,4-d]pyrimidin-4-yl)piperazin-1-yl]benzonitrile]
- IC50 [1]: 100 to 1000 nM
- IC50 [2]: ≥ 10000 nM

SMILES: N#Cc1ccc(N2CCN(c3ncnc4[nH]nc(Br)c34)CC2)cc1 [Entry 123, 4-[4-(3-bromo-1H-pyrazolo[3,4-d]pyrimidin-4-yl)piperazin-1-yl]benzonitrile]
- IC50 [1]: < 100 nM
- IC50 [2]: ≥ 10000 nM

SMILES: FC(F)(F)c1ccc(N2CCN(c3ncnc4[nH]nc(Br)c34)CC2)cc1 [Entry 124, 3-bromo-4-{4-[4-(trifluoromethyl)phenyl]piperazin-1-yl}-1H-pyrazolo[3,4-d]pyrimidine]
- IC50 [1]: 100 to 1000 nM
- IC50 [2]: ≥ 10000 nM

SMILES: Brc1n[nH]c2ncnc(N3CCN(c4ccc(OCc5ccccc5)cc4)CC3)c12 [Entry 125, 3-bromo-4-(4-{4-[(phenylmethyl)oxy]phenyl}piperazin-1-yl)-1H-pyrazolo[3,4-d]pyrimidine]
- IC50 [1]: 100 to 1000 nM
- IC50 [2]: ≥ 10000 nM

SMILES: CCc1n[nH]c2ncnc(N3CCN(c4cc(Cl)cc(OC)c4C)CC3)c12 [Entry 126, 4-{4-[5-chloro-2-methyl-3-(methyloxy)phenyl]piperazin-1-yl}-3-ethyl-1H-pyrazolo[3,4-d]pyrimidine]
- IC50 [1]: < 100 nM
- IC50 [2]: ≥ 10000 nM

SMILES: N#Cc1cccnc1N1CCN(c2ncnc3[nH]nc(Br)c23)CC1 [Entry 127, 2-[4-(3-bromo-1H-pyrazolo[3,4-d]pyrimidin-4-yl)piperazin-1-yl]pyridine-3-carbonitrile]
- IC50 [1]: 100 to 1000 nM
- IC50 [2]: ≥ 10000 nM

SMILES: Clc1cc(Cl)cc(N2CCN(c3ncnc4[nH]nc(Br)c34)CC2)c1 [Entry 128, 3-bromo-4-[4-(3,5-dichlorophenyl)piperazin-1-yl]-1H-pyrazolo[3,4-d]pyrimidine]
- IC50 [1]: 100 to 1000 nM
- IC50 [2]: ≥ 10000 nM
